From PubChem BioAssay AID330 (DTP/NCI, 2004)
Where “and” joins values, the source holds several entries; their conditions need not be identical. Identical values can stand only once. Inconclusive results and toxic doses are left out. Rule for the calls: active = survival T/C of 150% or more; inactive = T/C below 125% in these data.

Tested on: P388 leukemia ip, CD2F1 mice, survival T/C
Assay: NCI In Vivo Anticancer Drug Screen. Data for tumor model P388 Leukemia (intraperitoneal) in CD2F1 (CDF1) mice
Conditions: endpoint: median survival time, higher = longer survival
In short: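 Mice carrying the transplanted tumor received test compound or vehicle. Survival was recorded in each group, and the value is the treated-group measurement divided by that of the vehicle-treated control group.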

[1] = dose: 100.0 mg/kg/injection, schedule: Q01DX009 (ip), vehicle: saline with Tween-80
[2] = dose: 200.0 mg/kg/injection, schedule: Q01DX009 (ip), vehicle: saline with Tween-80
[3] = dose: 60.0 mg/kg/injection, schedule: Q01DX005 (ip), vehicle: saline
[4] = dose: 120.0 mg/kg/injection, schedule: Q01DX005 (ip), vehicle: saline
[5] = dose: 240.0 mg/kg/injection, schedule: Q01DX005 (ip), vehicle: saline
[6] = dose: 50.0 mg/kg/injection, schedule: Q01DX009 (ip), vehicle: Klucel (hydroxypropylcellulose) (HPC)
[7] = dose: 100.0 mg/kg/injection, schedule: Q01DX009 (ip), vehicle: Klucel (hydroxypropylcellulose) (HPC)
[8] = dose: 50.0 mg/kg/injection, schedule: Q01DX005 (ip), vehicle: saline with Tween-80
[9] = dose: 100.0 mg/kg/injection, schedule: Q01DX005 (ip), vehicle: saline with Tween-80
[10] = dose: 200.0 mg/kg/injection, schedule: Q01DX005 (ip), vehicle: saline with Tween-80
[11] = dose: 60.0 mg/kg/injection, schedule: Q01DX005 (ip), vehicle: Klucel (hydroxypropylcellulose) (HPC)
[12] = dose: 120.0 mg/kg/injection, schedule: Q01DX005 (ip), vehicle: Klucel (hydroxypropylcellulose) (HPC)
[13] = dose: 240.0 mg/kg/injection, schedule: Q01DX005 (ip), vehicle: Klucel (hydroxypropylcellulose) (HPC)
[14] = dose: 16.0 mg/kg/injection, schedule: Q01DX009 (ip), vehicle: Klucel (hydroxypropylcellulose) (HPC)
[15] = dose: 32.0 mg/kg/injection, schedule: Q01DX009 (ip), vehicle: Klucel (hydroxypropylcellulose) (HPC)

Measured: T/C

NC(CCS(=O)(=O)NO)C(=O)O (configuration not stated)
inactive: dose: 12.5 mg/kg/injection, schedule: Q01DX009 (ip), vehicle: water 89 % of control | dose: 25.0 mg/kg/injection, schedule: Q01DX009 (ip), vehicle: water 99 % of control | dose: 50.0 mg/kg/injection, schedule: Q01DX009 (ip), vehicle: water 90 % of control | dose: 100.0 mg/kg/injection, schedule: Q01DX009 (ip), vehicle: water 102 % of control | dose: 200.0 mg/kg/injection, schedule: Q01DX009 (ip), vehicle: water 99 % of control

CC(C)=C(OS(=O)(=O)C(F)(F)F)[Si](C)(C)C
inactive: dose: 50.0 mg/kg/injection, schedule: Q01DX009 (ip), vehicle: saline with Tween-80 99 % of control | [1] 105 % of control | [2] 105 % of control

COC(=O)n1nnc2ncccc21
inactive: [3] 101 % of control | [4] 100 % of control | [5] 92 % of control

Nc1nc(-c2ccccc2N=NN2CCN(N=Nc3ccccc3-c3nc(N)c4ccccc4n3)CC2)nc2ccccc12
inactive: dose: 0.78 mg/kg/injection, schedule: Q01DX009 (ip), vehicle: Klucel (hydroxypropylcellulose) (HPC) 104 % of control | dose: 1.56 mg/kg/injection, schedule: Q01DX009 (ip), vehicle: Klucel (hydroxypropylcellulose) (HPC) 102 % of control | dose: 3.12 mg/kg/injection, schedule: Q01DX009 (ip), vehicle: Klucel (hydroxypropylcellulose) (HPC) 95 % of control | dose: 6.25 mg/kg/injection, schedule: Q01DX009 (ip), vehicle: Klucel (hydroxypropylcellulose) (HPC) 100 % of control

CCN=C(Cl)N(C)c1ccccc1
inactive: [6] 100 % of control | [7] 95 % of control

O=C(CSC1CCc2ccccc21)NNC(=O)Nc1ccc(Cl)cc1 (configuration not stated)
inactive: dose: 50.0 mg/kg/injection, schedule: Q01DX005 (ip), vehicle: Klucel (hydroxypropylcellulose) (HPC) 90 % of control | dose: 100.0 mg/kg/injection, schedule: Q01DX005 (ip), vehicle: Klucel (hydroxypropylcellulose) (HPC) 95 % of control | dose: 200.0 mg/kg/injection, schedule: Q01DX005 (ip), vehicle: Klucel (hydroxypropylcellulose) (HPC) 89 % of control

Cc1c(-c2ccccc2)oc(=O)c(Cl)c1N(c1ccccc1)c1ccccc1
inactive: [8] 93 % of control | [9] 98 % of control | [10] 90 % of control

CCOC(=O)c1ccc(NC(=O)Oc2ccc(NC(C)=O)cc2)cc1
inactive: [11] 98 % of control | [12] 92 % of control | [13] 92 % of control

Oc1cc2c(cc1C(c1ccc3c(c1)OCO3)n1ccnc1)OCO2 (configuration not stated)
inactive: dose: 60.0 mg/kg/injection, schedule: Q01DX005 (ip), vehicle: saline with Tween-80 108 % of control | dose: 120.0 mg/kg/injection, schedule: Q01DX005 (ip), vehicle: saline with Tween-80 98 % of control | dose: 240.0 mg/kg/injection, schedule: Q01DX005 (ip), vehicle: saline with Tween-80 94 % of control

CCOC(=O)C1N=C(OCC)C(C)N=C1OCC (configuration not stated)
inactive: [3] 101 % of control | [4] 102 % of control | [5] 100 % of control

COC(=O)c1cc(C)n(Cc2ccccc2)c1
inactive: dose: 100.0 mg/kg/injection, schedule: Q01DX001 (ip), vehicle: saline with Tween-80 97 % of control | dose: 200.0 mg/kg/injection, schedule: Q01DX001 (ip), vehicle: saline with Tween-80 99 % of control | dose: 400.0 mg/kg/injection, schedule: Q01DX001 (ip), vehicle: saline with Tween-80 97 % of control

CCC(C)Sc1nc(N)nc2c1ncn2C1OC(CO)C(O)C1O (configuration not stated)
inactive: dose: 44.0 mg/kg/injection, schedule: Q01DX009 (ip), vehicle: saline with Tween-80 100 % of control | dose: 66.0 mg/kg/injection, schedule: Q01DX009 (ip), vehicle: saline with Tween-80 100 % of control | [1] 95 % of control | dose: 150.0 mg/kg/injection, schedule: Q01DX009 (ip), vehicle: saline with Tween-80 104 % of control | dose: 176.0 mg/kg/injection, schedule: Q04DX003 (ip), vehicle: saline with Tween-80 114 % of control | [2] 120 % of control | dose: 264.0 mg/kg/injection, schedule: Q04DX003 (ip), vehicle: saline with Tween-80 123 % of control

OC(Cc1ccnc2ccccc12)C(Cl)(Cl)Cl (configuration not stated)
inactive: dose: 200.0 mg/kg/injection, schedule: Q04DX003 (ip), vehicle: saline with Tween-80 104 % of control | dose: 400.0 mg/kg/injection, schedule: Q04DX003 (ip), vehicle: saline with Tween-80 90 % of control

CC1=CC(O)C(O)C2(C)C1CC(=O)C13COC4OC(CC1C4=O)C(O)C32 (configuration not stated)
inactive: dose: 0.5 mg/kg/injection, schedule: Q01DX009 (ip), vehicle: saline 102 % of control | dose: 1.0 mg/kg/injection, schedule: Q01DX009 (ip), vehicle: saline 103 % of control | dose: 2.0 mg/kg/injection, schedule: Q01DX009 (ip), vehicle: Klucel (hydroxypropylcellulose) (HPC) 96 % of control and 97 % of control | dose: 2.0 mg/kg/injection, schedule: Q01DX009 (ip), vehicle: saline 107 % of control | dose: 4.0 mg/kg/injection, schedule: Q01DX009 (ip), vehicle: Klucel (hydroxypropylcellulose) (HPC) 100 % of control and 111 % of control and 92 % of control | dose: 4.0 mg/kg/injection, schedule: Q01DX009 (ip), vehicle: saline 102 % of control | dose: 8.0 mg/kg/injection, schedule: Q01DX009 (ip), vehicle: Klucel (hydroxypropylcellulose) (HPC) 98 % of control and 94 % of control | [14] 92 % of control | [15] 86 % of control

CCCn1c(=O)n(CC)c(=O)c2[nH]c(Cl)nc21
inactive: [14] 100 % of control and 105 % of control | [15] 102 % of control and 105 % of control | dose: 64.0 mg/kg/injection, schedule: Q01DX009 (ip), vehicle: Klucel (hydroxypropylcellulose) (HPC) 108 % of control and 112 % of control

CC(C)c1cc(/C=C2/OC(=O)c3ccccc32)cc(C(C)C)c1O
inactive: dose: 100.0 mg/kg/injection, schedule: Q04DX002 (ip), vehicle: saline 101 % of control | dose: 200.0 mg/kg/injection, schedule: Q04DX002 (ip), vehicle: saline 100 % of control | dose: 400.0 mg/kg/injection, schedule: Q04DX002 (ip), vehicle: saline 106 % of control

[Cl][Rh][Cl].[NH-]c1nc2c(ccc3ccccc32)s1.[NH-]c1nc2c(ccc3ccccc32)s1.[NH-]c1nc2c(ccc3ccccc32)s1.[NH-]c1nc2c(ccc3ccccc32)s1
inactive: dose: 100.0 mg/kg/injection, schedule: Q04DX003 (ip), vehicle: saline 108 % of control | dose: 200.0 mg/kg/injection, schedule: Q04DX003 (ip), vehicle: saline 109 % of control | dose: 400.0 mg/kg/injection, schedule: Q04DX003 (ip), vehicle: saline 105 % of control

O=S(=O)(O)CCNC(=S)C(=S)NCCS(=O)(=O)O
inactive: dose: 50.0 mg/kg/injection, schedule: Q01DX009 (ip), vehicle: saline 100 % of control | dose: 100.0 mg/kg/injection, schedule: Q01DX009 (ip), vehicle: saline 100 % of control | dose: 200.0 mg/kg/injection, schedule: Q01DX009 (ip), vehicle: saline 101 % of control

O=C(O)C12C=CC(CC1)CC2
inactive: [11] 99 % of control | [12] 105 % of control | [13] 100 % of control

NC(=O)Cc1nc(O)cs1
inactive: [11] 102 % of control | [12] 101 % of control | [13] 109 % of control

O=C1Nc2ccccc2/C1=c1/sc2nc3ccccc3n2c1=O
inactive: dose: 200.0 mg/kg/injection, schedule: Q01DX001 (ip), vehicle: Klucel (hydroxypropylcellulose) (HPC) 89 % of control | dose: 400.0 mg/kg/injection, schedule: Q01DX001 (ip), vehicle: Klucel (hydroxypropylcellulose) (HPC) 89 % of control

Cc1cccc(/C=N/Nc2cc(C)nc3ccccc23)n1
inactive: [6] 109 % of control | [7] 118 % of control | dose: 200.0 mg/kg/injection, schedule: Q01DX009 (ip), vehicle: Klucel (hydroxypropylcellulose) (HPC) 117 % of control

Nc1ccc2ccccc2c1-c1cccc2ccccc12
inactive: [8] 96 % of control | [9] 96 % of control | dose: 100.0 mg/kg/injection, schedule: Q04DX002 (ip), vehicle: saline with Tween-80 102 % of control | [10] 102 % of control | dose: 200.0 mg/kg/injection, schedule: Q04DX002 (ip), vehicle: saline with Tween-80 102 % of control | dose: 400.0 mg/kg/injection, schedule: Q04DX002 (ip), vehicle: saline with Tween-80 92 % of control
